Data on six compounds can be found in patent US20260068885A1, “HERBICIDAL COMPOSITIONS” (BAYER AKTIENGESELLSCHAFT, priority 2022, published 2026).

What all share (assay): Post-emergence herbicidal action against harmful plants (greenhouse)
Common to all, as to type: in vivo

For assay [1], the system named is Abutilon theophrasti (ABUTH). The protocol:
(§1) Seeds of monocotyledonous and dicotyledonous weed and crop plants are laid out in sandy loam soil in wood-fibre pots, covered with soil and cultivated in a greenhouse under good growth conditions. 2 to 3 weeks after sowing, the test plants are treated at the one-leaf stage. The compounds of the invention, formulated in the form of wettable powders (WP) or as emulsion concentrates (EC), are then sprayed onto the green parts of the plants in the form of an aqueous suspension or emulsion at a water application rate equivalent to 600 to 800 l/ha, with addition of 0.2% wetting agent. After the test plants have been […], the action of the preparations is assessed visually in comparison to untreated controls (herbicidal action in percent (%): 100% activity=the plants have died, 0% activity=like control plants). […] The tables below illustrate, in an illustrative manner, the post-emergence herbicidal action of the compounds of the invention, the herbicidal activity being stated in percent.
(§2) In the tables that follow, the abbreviations mean the following: • E: means the synergism value to be expected according to the Colby formula. • Δ SYN: means the difference between the actual and expected synergism value. • DAT: means days after treatment.

The next assay relates to Setaria viridis (SETVI). The method, then: as §1, §2
Another assay deals with Solanum nigrum (SOLNI). The protocol: as §1, §2
Assay [2] has as its system Brachiaria platyphylla (BRAPP). The protocol:
(§3) Seeds of monocotyledonous and dicotyledonous weed and crop plants are laid out in sandy loam soil in wood-fibre pots, covered with soil and cultivated in a greenhouse under good growth conditions. 2 to 3 weeks after sowing, the test plants are treated at the one-leaf stage. The compounds of the invention, formulated in the form of wettable powders (WP) or as emulsion concentrates (EC), are then sprayed onto the green parts of the plants in the form of an aqueous suspension or emulsion at a water application rate equivalent to 600 to 800 l/ha, with addition of 0.2% wetting agent. After the test plants have been left to stand in the greenhouse under optimal growth conditions for about 3 weeks, the action of the preparations is assessed visually in comparison to untreated controls (herbicidal action in percent (%): 100% activity=the plants have died, 0% activity=like control plants). […] The tables below illustrate, in an illustrative manner, the post-emergence herbicidal action of the compounds of the invention, the herbicidal activity being stated in percent.
as §2

A further assay concerns Emex australis (EMEAU). The protocol:
as §3, §2

In assay [3] the test system is Sorghum halepense (SORHA). The protocol: as §3, §2
In assay [4] the test system is Euphorbia heterophylla (EPHHL). The conditions noted are these: EPHHL 21 DAT. The method, then:
as §3, §2

Assay [5] has as its system Erigeron bonariensis (ERIBO). The protocol: as §1, §2
Assay [6] concerns Pharbitis purpurea (PHBPU).
For assay [7], the system named is Polygonum convolvulus (POLCO).
The test system of another assay is Cyperus iria (CYPIR). The protocol: as §1, §2

As for `Nc1c(F)c(-c2ccc3cc[nH]c3c2F)nc(C(=O)O)c1Cl` [P3, 4-amino-3-chloro-5-fluoro-6-(7-fluoro-1H-indol-6-yl)pyridine-2-carboxylic acid], the Herbicidal efficacy worked out at 60% in assay [1] (ABUTH 21 DAT, 0.3 g a.i./ha); 60% in assay [1] (ABUTH 21 DAT, 1.2 g a.i./ha); 70% in the assay with Setaria viridis (SETVI) (SETVI 21 DAT, 0.3 g a.i./ha); 85% in the assay with Solanum nigrum (SOLNI) (SOLNI 21 DAT, 1.2 g a.i./ha); 70% in [2] (BRAPP 10 DAT, 0.3 g a.i./ha); 60% in assay [2] (BRAPP 21 DAT, 0.3 g a.i./ha). Also, the Herbicidal efficacy in assay [2] (BRAPP 21 DAT, 1.2 g a.i./ha) turned out to be 75%; in the assay with Emex australis (EMEAU) (EMEAU 21 DAT, 1.2 g a.i./ha), 70%. Further, the “Herbicidal efficacy [%] against SORHA 10 DAT” value in assay [3] (application rate 0.3 g a.i./ha) was 30%; in assay [3] (application rate 1.2 g a.i./ha) it was 60%. Moreover, the “Herbicidal efficacy [%] against SORHA 21 DAT” value in assay [3] (application rate 0.3 g a.i./ha) is given as 10%; in assay [3] (application rate 1.2 g a.i./ha) it was 30%.
For `CCOC(=O)C1(C)CC(c2cc(-n3c(=O)cc(C(F)(F)F)n(C)c3=O)c(F)cc2Cl)=NO1` (centres unmarked) [P4, ethyl 3-{2-chloro-4-fluoro-5-[3-methyl-2,6-dioxo-4-(trifluoromethyl)-3,6-dihydropyrimidin-1(2H)-yl]phenyl}-5-methyl-4,5-dihydro-1,2-oxazole-5-carboxylate], the Herbicidal efficacy in the assay on Setaria viridis (SETVI) (SETVI 10 DAT, 1 g a.i./ha) is 88%; with Setaria viridis (SETVI) (SETVI 21 DAT, 1 g a.i./ha) it was 80%; in the assay with Emex australis (EMEAU) (EMEAU 21 DAT, 1 g a.i./ha), 70%; in assay [4] (1 g a.i./ha), 80%.
On to `COc1ccc(-n2nc(C)cc(C(=O)C3C(=O)CCCC3=O)c2=O)cc1OC` [dioxopyritrione], for which the Herbicidal efficacy in [1] (ABUTH 21 DAT, 10 g a.i./ha) turned out to be 80%; in assay [5] (ERIBO 10 DAT, 10 g a.i./ha) it was 90%; in assay [5] (ERIBO 21 DAT, 10 g a.i./ha), 88%; with Setaria viridis (SETVI) (SETVI 10 DAT, 2.5 g a.i./ha), 10%; with Setaria viridis (SETVI) (SETVI 10 DAT, 10 g a.i./ha), 20%; in the assay on Setaria viridis (SETVI) (SETVI 21 DAT, 2.5 g a.i./ha), 10%. Besides, the Herbicidal efficacy in the assay on Setaria viridis (SETVI) (SETVI 21 DAT, 10 g a.i./ha) stood at 20%; in assay [2] (BRAPP 10 DAT, 2.5 g a.i./ha), 40%; in assay [2] (BRAPP 10 DAT, 10 g a.i./ha) it was 70%; in assay [2] (BRAPP 21 DAT, 2.5 g a.i./ha) it was 20%; in assay [2] (BRAPP 21 DAT, 10 g a.i./ha) it was 30%; in assay [6] (PHBPU 21 DAT, 2.5 g a.i./ha) it was 20%. Besides, the Herbicidal efficacy in assay [7] (POLCO 10 DAT, 2.5 g a.i./ha) is on record as 80%; in assay [7] (POLCO 10 DAT, 10 g a.i./ha), 80%; in assay [7] (POLCO 21 DAT, 10 g a.i./ha), 70%. The “Herbicidal efficacy [%] against SORHA 10 DAT” value in assay [3] (application rate 2.5 g a.i./ha) is recorded as 20%; in [3] (application rate 10 g a.i./ha) it was 30%. Further, the “Herbicidal efficacy [%] against SORHA 21 DAT” value in [3] (application rate 2.5 g a.i./ha) came out at 0%; in assay [3] (application rate 10 g a.i./ha), 10%.
Take `COc1c(Cl)ccc(-c2nc(C(=O)O)c(Cl)c(N)c2F)c1F` [florpyrauxifen]: the Herbicidal efficacy in [1] (ABUTH 21 DAT, 0.3 g a.i./ha) came out at 90%; in the assay with Setaria viridis (SETVI) (SETVI 10 DAT, 0.3 g a.i./ha) it was 30%; in the assay with Setaria viridis (SETVI) (SETVI 21 DAT, 0.3 g a.i./ha), 40%; in assay [2] (BRAPP 10 DAT, 0.3 g a.i./ha) it was 75%; in [2] (BRAPP 21 DAT, 0.3 g a.i./ha) it was 60%; in the assay on Emex australis (EMEAU) (EMEAU 21 DAT, 1.2 g a.i./ha), 75%. In addition, the Herbicidal efficacy in assay [4] (0.3 g a.i./ha) worked out at 90%; in [7] (POLCO 10 DAT, 1.2 g a.i./ha), 90%; in [7] (POLCO 21 DAT, 1.2 g a.i./ha), 90%. Further, the “Herbicidal efficacy [%] against SORHA 10 DAT” value in [3] (application rate 0.3 g a.i./ha) stood at 10%.
Turning to `FC(F)c1cc(-c2c(Cl)cccc2Oc2ncc(Cl)cn2)on1` [rimisoxafen], the Herbicidal efficacy is recorded as 88% in [1] (ABUTH 10 DAT, 20 g a.i./ha); 40% in assay [1] (ABUTH 21 DAT, 20 g a.i./ha); 88% with Cyperus iria (CYPIR) (CYPIR 21 DAT, 20 g a.i./ha); 10% in assay [5] (ERIBO 21 DAT, 20 g a.i./ha); 30% with Setaria viridis (SETVI) (SETVI 21 DAT, 20 g a.i./ha); 30% in assay [2] (BRAPP 10 DAT, 20 g a.i./ha). For the same compound, the Herbicidal efficacy in assay [2] (BRAPP 21 DAT, 20 g a.i./ha) worked out at 20%; with Emex australis (EMEAU) (EMEAU 10 DAT, 80 g a.i./ha), 88%; in the assay with Emex australis (EMEAU) (EMEAU 21 DAT, 80 g a.i./ha), 80%; in assay [6] (PHBPU 10 DAT, 20 g a.i./ha), 30%; in assay [6] (PHBPU 21 DAT, 20 g a.i./ha), 20%; in assay [7] (POLCO 21 DAT, 20 g a.i./ha), 60%. The compound also yielded a Herbicidal efficacy in assay [7] (POLCO 21 DAT, 80 g a.i./ha) of 88%. Further, the “Herbicidal efficacy [%] against SOLNI 10 DAT” value in the assay on Solanum nigrum (SOLNI) (application rate 80 g a.i./ha) is 88%. Besides, in the assay with Solanum nigrum (SOLNI) (application rate 80 g a.i./ha), the “Herbicidal efficacy [%] against SOLNI 21 DAT” value stood at 80%. In addition, the “Herbicidal efficacy [%] against SORHA 10 DAT” value in [3] (application rate 20 g a.i./ha) was found to be 10%. In addition, the “Herbicidal efficacy [%] against SORHA 21 DAT” value in assay [3] (application rate 20 g a.i./ha) was 10%.
For the compound `CN1C[C@H](c2cccc(C(F)(F)F)c2)[C@@H](C(=O)Nc2ccccc2F)C1=O` [tetflupyrolimet], the Herbicidal efficacy in assay [1] (ABUTH 10 DAT, 400 g a.i./ha) turned out to be 0%; in assay [1] (ABUTH 21 DAT, 400 g a.i./ha), 0%; with Cyperus iria (CYPIR) (CYPIR 10 DAT, 400 g a.i./ha), 0%; in the assay on Cyperus iria (CYPIR) (CYPIR 21 DAT, 400 g a.i./ha) it was 0%; in assay [2] (BRAPP 21 DAT, 400 g a.i./ha), 70%; in assay [7] (POLCO 10 DAT, 400 g a.i./ha) it was 10%. In addition, the Herbicidal efficacy was 0% in assay [7] (POLCO 21 DAT, 100 g a.i./ha) and 0% in assay [7] (POLCO 21 DAT, 400 g a.i./ha). The “Herbicidal efficacy [%] against SOLNI 10 DAT” value in the assay with Solanum nigrum (SOLNI) (application rate 400 g a.i./ha) is 10%. The “Herbicidal efficacy [%] against SOLNI 21 DAT” value in the assay on Solanum nigrum (SOLNI) (application rate 400 g a.i./ha) is on record as 0%. Besides, the “Herbicidal efficacy [%] against SORHA 10 DAT” value in assay [3] (application rate 100 g a.i./ha) was found to be 10%. Besides, the “Herbicidal efficacy [%] against SORHA 21 DAT” value in [3] (application rate 100 g a.i./ha) is 0%.
